Where two headings read alike, the source gives them in different places.
Columns and labels:
[1] = Plasma pharmacokinetics of Compound 2 in PD participants (LC-MS/MS); format: in vivo, human; conditions: plasma, plasma; for AUC(0-t) / Cmax / Tmax: human, po, 15 mg; for Tmax: read-out: tmax, median
Procedure: Participants were randomised to 3 doses of once-daily orally administered Compound 2 or placebo, in sequential cohort design, and were followed up to 36 weeks (52 weeks for Japanese participants). Participants in the low-dose group received 4 mg of Compound 2 as a once daily oral dose; participants in the mid-dose group received 8 mg of Compound 2 a once daily oral dose; and participants in the high-dose group received 15 mg of Compound 2 a once daily oral dose.
Analyses were based on all available data from participants who enrolled in part 1 of the trial and were randomised to receive either Compound 2 or placebo for up to 52 weeks for Japanese participants and 36 weeks for the ROW population. As part 1 was an exploratory, dose-escalation study, the sample size was not based on a statistical power calculation. Participants included in the primary safety analyses were those who were randomized and received at least one dose of Compound 2 or placebo. A data monitoring committee was responsible for overseeing the safety of patients and the risk/benefit ratio throughout the study. Duration of exposure to Compound 2 was different among the doses, as per the sequential cohort design, with the low- and high-dose cohorts commencing the study first and last, respectively. For pharmacokinetics, plasma parameters were calculated using noncompartmental methods, from plasma Compound 2 concentrations obtained after single dose administration. AUC0-24 and AUC0-48 were calculated using the trapezoidal method over a predefined time period of 24 hours or 48 hours, respectively. CLss/F was calculated using the following equation: CLss/F=Dose/AUCτ, where τ is the dosing interval. For pharmacodynamics, percent reduction of plasma or CSF GL-1 from baseline was calculated as (value−baseline)/baseline×100. Formal statistical testing was not conducted on MDS-UPDRS scale assessments.
The secondary outcome was to evaluate the pharmacokinetic profile of Compound 2 in plasma and cerebrospinal fluid (CSF) over a 4-week period. Plasma pharmacokinetic parameters included maximum plasma concentration (Cmax), time to Cmax (tmax), and area under the plasma concentration versus time curve from 0 to 24 h (AUC0-24). All parameters were assessed at Week 0 and Week 4 after treatment. In addition, AUC0-48 was assessed at Week 0, trough plasma concentration observed just before treatment administration during repeated dosing (Ctrough) was assessed at Weeks 2, 4, and 8 (FIG. 3), and total systemic clearance from plasma at steady state (CLSS/F) was assessed at Week 4. Plasma samples were collected at 1 hour pre-dose and 1, 2, 4, 8, 24, and 48 hours postdose. Compound 2 concentration in plasma was determined using a liquid chromatography tandem mass spectrometry method with a lower limit of quantification of 0.500 ng/mL. CSF samples were collected by lumbar puncture during the screening period (within 14 days prior to randomisation) or on the day of randomisation, and at Week 4, within 2 to 4 hours postdose. Compound 2 concentration in CSF was determined using a liquid chromatography tandem mass spectrometry method with a lower limit of quantification of 0.100 ng/mL.

[2] = test system: participants with early-stage PD carrying a GBA mutation; assay: MDS-UPDRS (parts II and III) scores in OFF state; format: in vivo, human; conditions: Combined Japan + ROW, all Compound 2 doses, N = 22, OFF state
Procedure: MDS-UPDRS (parts II [motor experiences of daily living; 13 items] and III [motor examination; 18 items]) scores are reported through Week 8. The MDS-UPDRS scale was assessed during the OFF state, with no PD medication taken for ≥12 hours prior.
The changes from baseline in MDS-UPDRS (parts II and III) scores at week 8 were assessed for participants in part 1 of the clinical study described in Example 2.

[3] = Day 1, Japan, High 15 mg oral, n = 3
[4] = Week 4, ROW, High 15 mg once daily oral, n = 4
[5] = Week 4, Japan, High 15 mg once daily oral, n = 2
[6] = Week 4, Japan, High 15 mg vs Low 4 mg
[7] = Week 4, Japan, Low 4 mg once daily oral, n = 1
[8] = Week 4, Japan, Mid 8 mg once daily oral, n = 3
[9] = Week 4, Japan, Mid 8 mg vs Low 4 mg
[10] = Week 4, ROW, High 15 mg vs Low 4 mg
[11] = Week 4, ROW, Low 4 mg once daily oral, n = 4
[12] = Week 4, ROW, Mid 8 mg once daily oral, n = 5
[13] = Week 4, ROW, Mid 8 mg vs Low 4 mg

Structure (SMILES): CC(C)(NC(=O)O[C@@H]1CN2CCC1CC2)c1csc(-c2ccc(F)cc2)n1 [Compound 2, (S)-quinuclidin-3-yl (2-(2-(4-fluorophenyl)thiazol-4-yl)propan-2-yl)carbamate]
- AUC(0-t) ([1]; Day 1, Japan, High 15 mg oral, n = 3, read-out: AUC0-24, Geometric mean): 977 ng·h/mL
- AUC(0-t) ([1]; Day 1, Japan, High 15 mg oral, n = 3, read-out: AUC0-24, mean): 990 ng·h/mL
- AUC(0-t) ([1]; Day 1, Japan, High 15 mg oral, n = 3, read-out: AUC0-48, Geometric mean): 1570 ng·h/mL
- AUC(0-t) ([1]; Day 1, Japan, High 15 mg oral, n = 3, read-out: AUC0-48, mean): 1590 ng·h/mL
- Cmax ([1]; Day 1, Japan, High 15 mg oral, n = 3, read-out: Cmax, mean): 54.1 ng/mL
- Tmax [1, 3]: 4.1 h
- AUC(0-t) ([1]; Day 1, ROW, High 15 mg oral, n = 4, read-out: AUC0-24, Geometric mean): 868 ng·h/mL
- AUC(0-t) ([1]; Day 1, ROW, High 15 mg oral, n = 4, read-out: AUC0-24, mean): 873 ng·h/mL
- AUC(0-t) ([1]; Day 1, ROW, High 15 mg oral, n = 4, read-out: AUC0-48, Geometric mean): 1440 ng·h/mL
- AUC(0-t) ([1]; Day 1, ROW, High 15 mg oral, n = 4, read-out: AUC0-48, mean): 1450 ng·h/mL
- Cmax ([1]; Day 1, ROW, High 15 mg oral, n = 4, read-out: Cmax, Geometric mean): 47.1 ng/mL
- Cmax ([1]; Day 1, ROW, High 15 mg oral, n = 4, read-out: Cmax, mean): 47.4 ng/mL
- Tmax ([1]; Day 1, ROW, High 15 mg oral, n = 4): 3.94 h
- AUC(0-t) ([1]; Week 4, Japan, High 15 mg once daily oral, n = 2, read-out: AUC0-24, Geometric mean): 3140 ng·h/mL
- AUC(0-t) ([1]; Week 4, Japan, High 15 mg once daily oral, n = 2, read-out: AUC0-24, mean): 3150 ng·h/mL
- Cmax ([1]; Week 4, Japan, High 15 mg once daily oral, n = 3, read-out: Cmax, Geometric mean): 144 ng/mL
- Cmax ([1]; Week 4, Japan, High 15 mg once daily oral, n = 3, read-out: Cmax, mean): 145 ng/mL
- Tmax ([1]; Week 4, Japan, High 15 mg once daily oral, n = 3): 2.1 h
- AUC(0-t) ([1]; Week 4, ROW, High 15 mg once daily oral, n = 4, read-out: AUC0-24, Geometric mean): 2490 ng·h/mL
- AUC(0-t) ([1]; Week 4, ROW, High 15 mg once daily oral, n = 4, read-out: AUC0-24, mean): 2510 ng·h/mL
- Cmax ([1]; Week 4, ROW, High 15 mg once daily oral, n = 4, read-out: Cmax, Geometric mean): 135 ng/mL
- Cmax ([1]; Week 4, ROW, High 15 mg once daily oral, n = 4, read-out: Cmax, mean): 136 ng/mL
- Tmax [1, 4]: 2.89 h
- Cmax, Geometric mean [1, 3]: 53.3 ng/mL
- CLss/F, Geometric mean [1, 5]: 4770 mL/h
- CLss/F, mean [1, 5]: 4780 mL/h
- AUC0-24, Fold increase vs low dose [1, 6]: 2.78 fold
- CLss/F, Fold increase vs low dose [1, 6]: 1.35 fold
- Cmax (geometric mean), Fold increase vs low-dose [1, 6]: 2.56 fold
- CLss/F, Geometric mean [1, 7]: 3540 mL/h
- CLss/F, mean [1, 7]: 3540 mL/h
- CLss/F, Geometric mean [1, 8]: 4930 mL/h
- CLss/F, mean [1, 8]: 5010 mL/h
- Cmax, mean [1, 8]: 83.7 ng/mL
- AUC0-24, Fold increase vs low dose [1, 9]: 1.43 fold
- CLss/F, Fold increase vs low dose [1, 9]: 1.39 fold
- Cmax (geometric mean), Fold increase vs low-dose [1, 9]: 1.47 fold
- CLss/F, Geometric mean [1, 4]: 6030 mL/h
- CLss/F, mean [1, 4]: 6100 mL/h
- AUC0-24, Fold increase vs low dose [1, 10]: 3.26 fold
- CLss/F, Fold increase vs low dose [1, 10]: 1.15 fold
- Cmax (geometric mean), Fold increase vs low-dose [1, 10]: 3.29 fold
- CLss/F, Geometric mean [1, 11]: 5240 mL/h
- CLss/F, mean [1, 11]: 5270 mL/h
- CLss/F, Geometric mean [1, 12]: 5370 mL/h
- CLss/F, mean [1, 12]: 5450 mL/h
- AUC0-24, Fold increase vs low dose [1, 13]: 1.95 fold
- CLss/F, Fold increase vs low dose [1, 13]: 1.02 fold
- Cmax (geometric mean), Fold increase vs low-dose [1, 13]: 1.85 fold
- Ctrough versus dose ([1]; Weeks 2, 4, and 8 (FIG. 3)): increased in a dose-proportional manner
- MDS-UPDRS (part II + III) score, Change from baseline at week 8 (mean) [2]: −2.9
